Values of other authors as cited in PubChem BioAssay AID1259409 (Chemical Carcinogenesis Research Information System (CCRIS), 2018).
Values joined by “and” are separate entries in the source; they are usually repeats but may differ in a detail not shown here. Equal values may be shown once.

Test system: rodent chemically induced tumor inhibition, incidence and multiplicity
Assay: CCRIS tumor inhibitor studies

Q: With `COc1ccc2c(c1)CCC(c1ccccc1)=C2c1ccc(OCCN2CCCC2)cc1` as the molecule, how does the “tumour outcome (control, treated, inhibition, significance)” value (Carcinogen: 7,12-DIMETHYLBENZ[A]ANTHRACENE, 57-97-6, Dose [Inhibitor]: 1 MG/KG 3/WK BEGINNING 2 D AFTER DMBA TREATMENT (STUDY DURATION: 5 MO), Route [Inhibitor]: SUBCUTANEOUS, Species: RAT, Strain/Sex: SPRAGUE-DAWLEY/FEMALE, Target Tissue: Type of Lesion: MAMMARY GLAND: ADENOCARCINOMA, FIBROADENOMA, Dose [Carcinogen]: 5 MG IN 0.5 ML CORN OIL AT 50 D OF AGE, Promoter: NONE USED) read?
A: 56%, 10%, 82%, not calculated and 34%, 1%, 97%, not calculated

Q: What about the “tumour outcome (control, treated, inhibition, significance)” value (Carcinogen: 7,12-DIMETHYLBENZ[A]ANTHRACENE, 57-97-6, Dose [Inhibitor]: 1 MG/KG 3/WK BEGINNING 2 D AFTER DMBA TREATMENT (STUDY DURATION: 5 MO), Route [Inhibitor]: SUBCUTANEOUS, Species: RAT, Strain/Sex: SPRAGUE-DAWLEY/FEMALE, Target Tissue: Type of Lesion: MAMMARY GLAND: ADENOCARCINOMA, FIBROADENOMA, Dose [Carcinogen]: 10 MG IN 0.5 ML CORN OIL AT 50 D OF AGE, Promoter: NONE USED) of the same molecule?
A: 58%, 27%, 53%, not calculated and 38%, 10%, 74%, not calculated

Q: And the “tumour outcome (control, treated, inhibition, significance)” value (Carcinogen: 7,12-DIMETHYLBENZ[A]ANTHRACENE, 57-97-6, Dose [Inhibitor]: 1 MG/KG 3/WK BEGINNING 15 D AFTER DMBA TREATMENT (STUDY DURATION: 5 MO), Route [Inhibitor]: SUBCUTANEOUS, Species: RAT, Strain/Sex: SPRAGUE-DAWLEY/FEMALE, Target Tissue: Type of Lesion: MAMMARY GLAND: ADENOCARCINOMA, FIBROADENOMA, Dose [Carcinogen]: 5 MG IN 0.5 ML CORN OIL AT 50 D OF AGE, Promoter: NONE USED)?
A: 56%, 22%, 61%, not calculated and 34%, 5%, 85%, not calculated

Q: With `CC(Cc1ccc(O)c(O)c1)C(C)Cc1ccc(O)c(O)c1` (configuration not stated) as the molecule, how does the “tumour outcome (control, treated, inhibition, significance)” value (Carcinogen: 7,12-DIMETHYLBENZ[A]ANTHRACENE, 57-97-6, Dose [Inhibitor]: 0, 10 UMOL IN 0.2 ML ACETONE 1/D FOR 7 D BEGINNING 7 D PRIOR TO CARCINOGEN DOSE (STUDY DURATION: 17 WK), Route [Inhibitor]: DERMAL, Species: RAT, Strain/Sex: SENCAR/FEMALE, Target Tissue: Type of Lesion: SKIN: TUMOR, Dose [Carcinogen]: 40 NMOL IN 0.2 ML ACETONE ONCE, Promoter: 12-0-TETRADECANOYLPHORBOL-13-ACETATE, 16561-29-8) read?
A: 100%, 100%, 0%, not significant

Q: What about the “tumour outcome (control, treated, inhibition, significance)” value (Carcinogen: 7,12-DIMETHYLBENZ[A]ANTHRACENE, 57-97-6, Dose [Inhibitor]: 0, 10 UMOL IN 0.2 ML ACETONE 2/WK FOR 16 WK APPLIED 30 MIN PRIOR TO PROMOTER DOSES (STUDY DURATION: 17 WK), Route [Inhibitor]: DERMAL, Species: RAT, Strain/Sex: SENCAR/FEMALE, Target Tissue: Type of Lesion: SKIN: TUMOR, Dose [Carcinogen]: 40 NMOL IN 0.2 ML ACETONE ONCE, Promoter: 12-0-TETRADECANOYLPHORBOL-13-ACETATE, 16561-29-8) of the same molecule?
A: 100%, 85%, 15%, not calculated

Q: What about the “tumour outcome (control, treated, inhibition, significance)” value (Carcinogen: 7,12-DIMETHYLBENZ[A]ANTHRACENE, 57-97-6, Dose [Inhibitor]: 30 UMOL APPLIED 30-40 MIN BEFORE EACH TPA TREATMENT AND CONCURRENTLY WITH TPA (STUDY DURATION: 18 WK), Route [Inhibitor]: DERMAL, Species: MOUSE, Strain/Sex: CD-1/FEMALE, Target Tissue: Type of Lesion: SKIN: PAPILLOMA, Dose [Carcinogen]: 200 NMOL ONCE, Promoter: 12-O-TETRADECANOYLPHORBOL-13-ACETATE, 16561-29-8) of the same molecule?
A: 96%, 50%, 48%, not calculated

Q: And the “tumour outcome (control, treated, inhibition, significance)” value (Carcinogen: DIETHYLNITROSAMINE, 55-18-5, Dose [Inhibitor]: 0, 1 MG/D IN 0.2 ML CORN OIL 3/WK FOR 16 WKS BEGINNING POST CARCINOGEN DOSE (STUDY DURATION: 24 WKS), Route [Inhibitor]: GAVAGE, Species: MOUSE, Strain/Sex: SWISS/MALE, Target Tissue: Type of Lesion: KIDNEY: RENAL CELL TUMOR, Dose [Carcinogen]: 100 MG/KG BW IN SALINE ONCE, Promoter: FERRIC NITRILOTRIACETATE, 16448-54-7)?
A: 68%, 20%, 71%, not calculated

Q: What about the “tumour outcome (control, treated, inhibition, significance)” value (Carcinogen: DIETHYLNITROSAMINE, 55-18-5, Dose [Inhibitor]: 0, 2 MG/D IN 0.2 ML CORN OIL 3/WK FOR 16 WK BEGINNING POST CARCINOGEN DOSE (STUDY DURATION:24 WKS), Route [Inhibitor]: GAVAGE, Species: MOUSE, Strain/Sex: SWISS/MALE, Target Tissue: Type of Lesion: KIDNEY: RENAL CELL TUMOR, Dose [Carcinogen]: 100 MG/KG BW IN SALINE ONCE, Promoter: FERRIC NITRILOTRIACETATE, 16448-54-7) of the same molecule?
A: 68%, 16%, 76%, not calculated

Q: And the “tumour outcome (control, treated, inhibition, significance)” value (Carcinogen: N-BUTYL-N-(4-HYDROXYBUTYL)NITROSAMINE, 3817-11-6, Dose [Inhibitor]: 0, 0.1% IN DIET CONCURRENT WITH PROMOTER BEGINNING POST CARCINOGEN TREATMENT AND CONTINUING FOR 36 WK (STUDY DURATION: 4, Route [Inhibitor]: ORAL, Species: RAT, Strain/Sex: F344/MALE, Target Tissue: Type of Lesion: URINARY BLADDER: CARCINOMA, Dose [Carcinogen]: 0.05% IN DRINKING WATER FOR 4 WK, Promoter: SODIUM SACCHARIN, 128-44-9)?
A: 2/23 (9%), 1/22 (5%), 44%, not significant

Q: What about the “tumour outcome (control, treated, inhibition, significance)” value (Carcinogen: N-BUTYL-N-(4-HYDROXYBUTYL)NITROSAMINE, 3817-11-6, Dose [Inhibitor]: 0, 0.1% IN DIET CONCURRENT WITH PROMOTER BEGINNING POST CARCINOGEN TREATMENT AND CONTINUING FOR 36 WK (STUDY DURATION: 4, Route [Inhibitor]: ORAL, Species: RAT, Strain/Sex: F344/MALE, Target Tissue: Type of Lesion: URINARY BLADDER: PAPILLOMA, Dose [Carcinogen]: 0.05% IN DRINKING WATER FOR 4 WK, Promoter: SODIUM SACCHARIN, 128-44-9) of the same molecule?
A: 5/23 (22%), 0/22 (0%), 100%, p<0.05

Q: What does the source list for `CCCCCCCC/C=C\CCCCCCCC(=O)O`?
A: tumour outcome (control, treated, inhibition, significance) (Carcinogen: 1,2-DIMETHYLHYDRAZINE, 540-73-8, Dose [Inhibitor]: 0, 1 MG/D FOR 25 WK BEGINNING 3 WK PRIOR TO CARCINOGEN (STUDY DURATION: 25 WK), Route [Inhibitor]: ORAL, Species: RAT, Strain/Sex: CD-1/MALE, Target Tissue: Type of Lesion: COLON: TUMOR, Dose [Carcinogen]: 15 MG/KG 1/WK FOR 16 WK): 17/22 (77%), 19/22 (86%), -12%, not significant; tumour outcome (control, treated, inhibition, significance) (Carcinogen: BENZO[A]PYRENE, 50-32-8, Dose [Inhibitor]: 25 MG IN 0.1 ML ACETONE 3/WK ADMINISTERED SIMULTANEOUSLY WITH CARCINOGEN FOR DURATION OF STUDY (STUDY DURATION: 440 D), Route [Inhibitor]: DERMAL, Species: MOUSE, Strain/Sex: ICR/FEMALE, Target Tissue: Type of Lesion: SKIN: PAPILLOMA, Dose [Carcinogen]: 5 UG IN 0.1 ML ACETONE 3/WK FOR DURATION OF STUDY, Promoter: NONE USED): 16/50 (32%), 0/50 (0%), 100%, not calculated; tumour outcome (control, treated, inhibition, significance) (Carcinogen: BENZO[A]PYRENE, 50-32-8, Dose [Inhibitor]: 25 MG IN 0.1 ML ACETONE 3/WK ADMINISTERED SIMULTANEOUSLY WITH CARCINOGEN FOR DURATION OF STUDY (STUDY DURATION: 440 D), Route [Inhibitor]: DERMAL, Species: MOUSE, Strain/Sex: ICR/FEMALE, Target Tissue: Type of Lesion: SKIN: SQUAMOUS CARCINOMA, Dose [Carcinogen]: 5 UG IN 0.1 ML ACETONE 3/WK FOR DURATION OF STUDY, Promoter: NONE USED): 12/50 (24%), 0/50 (0%), 100%, not calculated

Q: For `CC/C=C\C/C=C\C/C=C\C/C=C\C/C=C\C/C=C\CCC(=O)O`, which “tumour outcome (control, treated, inhibition, significance)” value (Carcinogen: 7,12-DIMETHYLBENZ[A]ANTHRACENE, 57-97-6, Dose [Inhibitor]: 0, 0.5 ML 2/WK FOR 19 WK BEGINNING 1 WK POST CARCINOGEN DOSE ADMINISTERED TO RATS FED HIGH-FAT (20% CORN OIL) DIETS (STU, Route [Inhibitor]: GAVAGE, Species: RAT, Strain/Sex: SPRAGUE-DAWLEY/FEMALE, Target Tissue: Type of Lesion: MAMMARY GLAND: ADENOCARCINOMA, Dose [Carcinogen]: 5 MG ONCE AT 50 D OF AGE, Promoter: NONE USED) is on record?
A: 24/30 (80%), 6/24 (25%), 69%, p<0.05

Q: Which “tumour outcome (control, treated, inhibition, significance)” value (Carcinogen: AZOXYMETHANE, 25843-45-2, Dose [Inhibitor]: 0, 50 PPM IN HIGH-FAT DIET BEGINNING 2 WK PRIOR TO CARCINOGEN AND CONTINUING UNTIL 2 WK POST CARCINOGEN (STUDY DURATION:, Route [Inhibitor]: ORAL, Species: RAT, Strain/Sex: F344/FEMALE, Target Tissue: Type of Lesion: COLON: ADENOMA, ADENOCARCINOMA, Dose [Carcinogen]: 15 MG/KG IN NORMAL SALINE 1/WK FOR 3 WK, Promoter: NONE USED) does the source give for `COc1ccc([Se])cc1` here?
A: 27/29 (93%), 15/31 (48%), 48%, p<0.05

Q: And the “tumour outcome (control, treated, inhibition, significance)” value (Carcinogen: AZOXYMETHANE, 25843-45-2, Dose [Inhibitor]: 0, 50 PPM IN HIGH-FAT DIET BEGINNING 2 WK PRIOR TO CARCINOGEN AND CONTINUING UNTIL 2 WK POST CARCINOGEN (STUDY DURATION:, Route [Inhibitor]: ORAL, Species: RAT, Strain/Sex: F344/FEMALE, Target Tissue: Type of Lesion: KIDNEY: ADENOMA, ADENOCARCINOMA, NEPHROBLASTOMA, Dose [Carcinogen]: 15 MG/KG IN NORMAL SALINE 1/WK FOR 3 WK, Promoter: NONE USED)?
A: 15/29 (52%), 8/31 (26%), 50%, p<.05

Q: What about the “tumour outcome (control, treated, inhibition, significance)” value (Carcinogen: AZOXYMETHANE, 25843-45-2, Dose [Inhibitor]: 0, 50 PPM IN HIGH-FAT DIET BEGINNING 2 WK PRIOR TO CARCINOGEN AND CONTINUING UNTIL 2 WK POST CARCINOGEN (STUDY DURATION:, Route [Inhibitor]: ORAL, Species: RAT, Strain/Sex: F344/FEMALE, Target Tissue: Type of Lesion: SMALL INTESTINE: ADENOMA, ADENOCARCINOMA, Dose [Carcinogen]: 15 MG/KG IN NORMAL SALINE 1/WK FOR 3 WK, Promoter: NONE USED) of the same molecule?
A: 3/29 (10%), 5/31 (16%), -60%, not significant
